Tests used:
[1] = B32B3 stability assessment in plasma; type: in vitro ADME; details: mouse plasma
Method: To assess the metabolic stability of B32B3 in mouse, dog, monkey, and human plasma, the compound was spiked into blank plasma to a concentration of 10 μM. At 0, 15, 30, 60, 90, and 120 min time points, a 30 μl aliquot was collected and mixed with 270 μl acetonitrile solution for protein precipitation. After centrifugation, the supernatant was analyzed by LC-MS/MS. In vitro half-life of B32B3 in plasma was calculated using the slope (k) of the log-linear regression from the concentration remaining parent compound versus time. T1/2=−ln 2/k Mouse Pharmacokinetics of B32B3

[2] = test system: VprBP target genes in DU145 cells; assay: qRT-PCR of VprBP target genes; type: cell-based, human; details: B32B3 1 mM
Method: Total RNA was isolated from mock- or VprBP-depleted cells using the TRIzol reagent according to the manufacturer's instructions (Invitrogen). Gene expression microarray experiments were conducted using a whole-genome expression array (Human HT-12 v4 Expression BeadChip, Illumina). This high density oligonucleotide array chip targets more than 47000 probe sequences derived from National Center for Biotechnology Information Reference Sequence (NCBI) RefSeq Release 38 (Nov. 7, 2009) and other sources. Data were processed and analyzed by the ArrayPipe software (www.pathogenomics.ca/arraypipe). For qRT-PCR, total RNA was extracted as described for microarray and subjected to RT reactions with the use of PerfeCta® SYBR Green FastMix (Quanta BIOSCIENCES) and an iCycler IQ5 real time cycler (Bio-Rad). The specificity of the amplification reactions were monitored by melting curve analysis. Assays were normalized to β-actin mRNA levels. The following primers were used for qRT-PCR: […]

[3] = test system: H2AT120p and VprBP at target genes in DU145 cells; assay: Chromatin immunoprecipitation (ChIP) at VprBP target genes; type: cell-based, human; details: B32B3 1 mM
Method: Mock-depleted or VprBP-depleted DU145 cells were grown to 70-80% confluence, cross-linked with 1% formaldehyde for 10 min, and processed for ChIP as recently described (Kim, K. et al. (2012) Mol. Cell Biol. 32:783-796). […] All samples were run in triplicate and results were averaged. Sequences of the primers used for quantitative real time PCR (qPCR) are as follows: […]

c1ccc2c(CNNc3ncnc4sc5c(c34)CCCC5)c[nH]c2c1 [B32B3]
half-life at 10 μM [1]: ~7 h
Expression of VprBP target genes [2]: higher expression of VprBP target genes
Reduction of H2AT120p at promoter and coding regions of target genes [3]: 70%
VprBP levels at promoter and coding regions of target genes [3]: did not alter

Reference: US9234018B2, “Compositions and methods for the treatment of VprBP-related cancers” (University of Southern California, priority 2013, dated 2016)
